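These data come from cells grown in 96-well plates and exposed to compound for 48 hours at five concentrations. At the GI50, growth is halved.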 Activity calls are given as the source filed them. No stated cut-off is given here; in the data, active = GI50 up to about 1.1 µM and inactive = higher.
Assays:
Experiment in all cases: NCI-60 cell line screen, 48 h
HCT-116 = system: HCT-116
OVCAR-3 = system: OVCAR-3
CCRF-CEM = system: CCRF-CEM
LOX IMVI = system: LOX IMVI
RXF 393 = system: RXF 393
T47D = system: T47D
SW-620 = system: SW-620
SNB-75 = system: SNB-75
SF-268 = system: SF-268
IGROV-1 = system: IGROV-1
DU-145 = system: DU-145
Hs-578T = system: Hs-578T
MOLT-4 = system: MOLT-4
HOP-92 = system: HOP-92
SF-539 = system: SF-539
SK-MEL-2 = system: SK-MEL-2
SN12C = system: SN12C
EKVX = system: EKVX
MCF7 = system: MCF7
NCI-H522 = system: NCI-H522
OVCAR-8 = system: OVCAR-8
PC-3 = system: PC-3
MDA-N = system: MDA-N
K562 = system: K562
NCI-H226 = system: NCI-H226
BT-549 = system: BT-549
KM12 = system: KM12
COLO 205 = system: COLO 205
UACC-62 = system: UACC-62
SR = system: SR
RPMI-8226 = system: RPMI-8226
A549 = system: A549
SK-MEL-28 = system: SK-MEL-28
NCI/ADR-RES = system: NCI/ADR-RES
ACHN = system: ACHN
Malme-3M = system: Malme-3M
SK-MEL-5 = system: SK-MEL-5
M14 = system: M14
HL-60 = system: HL-60
HT-29 = system: HT-29
CAKI-1 = system: CAKI-1
A498 = system: A498
HCT-15 = system: HCT-15
OVCAR-5 = system: OVCAR-5
NCI-H23 = system: NCI-H23
UO-31 = system: UO-31
HOP-62 = system: HOP-62
MDA-MB-435 = system: MDA-MB-435
SNB-19 = system: SNB-19
SF-295 = system: SF-295
SK-OV-3 = system: SK-OV-3
OVCAR-4 = system: OVCAR-4
786-0 = system: 786-0
U-251 = system: U-251
NCI-H460 = system: NCI-H460
UACC-257 = system: UACC-257
MDA-MB-231 = system: MDA-MB-231
HCC 2998 = system: HCC 2998
TK-10 = system: TK-10

Measured: GI50

COc1cc(S(=O)(=O)Nc2ccc(-c3csc(N4C(=O)C(C)SC4c4cccc(Oc5ccccc5)c4)n3)cc2)ccc1Cl (stereo unspecified)
inactive: HCT-116 34.8 µM | OVCAR-3 43.6 µM | CCRF-CEM 64.7 µM | LOX IMVI 32.4 µM | RXF 393 17.3 µM | T47D 29.6 µM | SW-620 59 µM | SNB-75 52.1 µM | SF-268 26.7 µM | IGROV-1 39 µM | DU-145 35.3 µM | Hs-578T 34 µM | MOLT-4 37.8 µM | HOP-92 32.7 µM | SF-539 27.6 µM | SK-MEL-2 86.9 µM | SN12C 70.1 µM | EKVX 53.2 µM | MCF7 24.1 µM | NCI-H522 29.8 µM | OVCAR-8 37.5 µM | PC-3 43.9 µM | MDA-N 27.7 µM | K562 36.5 µM | NCI-H226 27.1 µM | BT-549 26.7 µM | KM12 34.5 µM | COLO 205 27.7 µM | UACC-62 28.4 µM | SR 26.3 µM | RPMI-8226 42.1 µM | A549 > 100 µM | SK-MEL-28 55.8 µM | NCI/ADR-RES > 100 µM | ACHN 57.8 µM | Malme-3M > 100 µM | SK-MEL-5 27.5 µM | M14 34.7 µM | HL-60 27.2 µM | HT-29 35.4 µM | CAKI-1 46 µM | A498 27.4 µM | OVCAR-5 83.2 µM | NCI-H23 33 µM | UO-31 64.6 µM | HOP-62 50.7 µM | MDA-MB-435 32.6 µM | SNB-19 86.9 µM | SF-295 46.2 µM | SK-OV-3 52.6 µM
36.9 µM: HCT-15

O=C(O)C[n+]1cn(NC(=O)Cc2ccccc2)cn1
active: Hs-578T 0.158 µM | UACC-62 0.664 µM | RPMI-8226 0.501 µM
> 10 µM: HCT-15
inactive: HCT-116 > 10 µM | OVCAR-3 > 10 µM | CCRF-CEM > 10 µM | LOX IMVI > 10 µM | OVCAR-4 > 10 µM | T47D > 10 µM | SW-620 > 10 µM | SNB-75 > 10 µM | SF-268 > 10 µM | IGROV-1 > 10 µM | DU-145 > 10 µM | 786-0 > 10 µM | MOLT-4 > 10 µM | HOP-92 > 10 µM | SF-539 > 10 µM | SN12C > 10 µM | EKVX 7.16 µM | U-251 > 10 µM | MCF7 > 10 µM | NCI-H460 > 10 µM | NCI-H522 > 10 µM | OVCAR-8 > 10 µM | MDA-N > 10 µM | K562 > 10 µM | BT-549 > 10 µM | KM12 > 10 µM | COLO 205 > 10 µM | UACC-257 > 10 µM | SR > 10 µM | A549 > 10 µM | SK-MEL-28 > 10 µM | NCI/ADR-RES > 10 µM | ACHN > 10 µM | Malme-3M > 10 µM | SK-MEL-5 > 10 µM | M14 > 10 µM | HT-29 > 10 µM | CAKI-1 > 10 µM | A498 > 10 µM | MDA-MB-231 > 10 µM | OVCAR-5 > 10 µM | HCC 2998 > 10 µM | NCI-H23 > 10 µM | UO-31 > 10 µM | HOP-62 > 10 µM | MDA-MB-435 > 10 µM | SNB-19 > 10 µM | SF-295 > 10 µM | SK-OV-3 > 10 µM | TK-10 > 10 µM

Cc1nn(-c2ccccc2)c2nc(S)cnc12
inactive: HCT-116 > 100 µM | OVCAR-3 > 100 µM | CCRF-CEM > 100 µM | LOX IMVI > 100 µM | OVCAR-4 > 100 µM | RXF 393 > 100 µM | T47D > 100 µM | SW-620 > 100 µM | SF-268 > 100 µM | IGROV-1 > 100 µM | DU-145 > 100 µM | 786-0 > 100 µM | Hs-578T > 100 µM | MOLT-4 > 100 µM | HOP-92 > 100 µM | SF-539 > 100 µM | SK-MEL-2 > 100 µM | SN12C > 100 µM | EKVX > 100 µM | U-251 > 100 µM | MCF7 > 100 µM | NCI-H460 > 100 µM | NCI-H522 > 100 µM | OVCAR-8 > 100 µM | PC-3 > 100 µM | MDA-N > 100 µM | K562 > 100 µM | NCI-H226 > 100 µM | BT-549 > 100 µM | UACC-62 > 100 µM | UACC-257 > 100 µM | SR > 100 µM | RPMI-8226 89.5 µM | A549 > 100 µM | SK-MEL-28 > 100 µM | NCI/ADR-RES > 100 µM | Malme-3M > 100 µM | M14 > 100 µM | HL-60 > 100 µM | HT-29 > 100 µM | CAKI-1 > 100 µM | A498 > 100 µM | OVCAR-5 > 100 µM | NCI-H23 > 100 µM | UO-31 > 100 µM | HOP-62 > 100 µM | MDA-MB-435 > 100 µM | SNB-19 > 100 µM | SF-295 > 100 µM | SK-OV-3 > 100 µM | TK-10 > 100 µM

From ChEMBL document CHEMBL1201862, “PubChem BioAssay data set” (2004)
